≈ marks a conversion by molar mass, not a printed value.
Tests used:
Type in all cases: cell-based
BXPC-3 (pancreas) = test: Sulforhodamine B human cancer cell growth inhibition, BXPC-3; conditions: BXPC-3 pancreas cell line, compounds in DMSO, 48 h; for IC50: Homo sapiens, read-out: Gl50 Growth Inhibition, XPC-3
Procedure: (§1) Cancer Cell Line Procedures. Inhibition of human cancer cell growth was assessed using the standard sulforhodamine B assay of the U.S. National Cancer Institute, as previously described.^15 To begin, cells in a 5% fetal bovine serum/RPMI1640 medium were inoculated in 96-well plates and incubated for 24 h. Next, serial dilutions of the compounds were added. After 48 h, the plates were fixed with trichloroacetic acid, stained with sulforhodamine B, and read with an automated microplate reader.

MCF-7 (breast) = test: Sulforhodamine B human cancer cell growth inhibition, MCF-7; conditions: compounds in DMSO, 48 h; for Gl50 Growth Inhibition, MCF-7: MCF-7 breast cell line; for IC50: Homo sapiens, MCF7, MCF-7 breast cell line, read-out: Gl50 Growth Inhibition, MCF-7
Procedure: as §1

SF-268 (CNS) = test: Sulforhodamine B human cancer cell growth inhibition, SF-268; conditions: SF-268 CNS cell line, compounds in DMSO, 48 h; for IC50: Homo sapiens, read-out: Gl50 Growth Inhibition, SF-268
Procedure: as §1

NCI-H460 (lung) = test: Sulforhodamine B human cancer cell growth inhibition, NCI-H460; conditions: NCI-H460 lung cell line, compounds in DMSO, 48 h; for IC50: Homo sapiens, read-out: Gl50 Growth Inhibition, NCI-H460
Procedure: as §1

KM20L2 (colon) = test: Sulforhodamine B human cancer cell growth inhibition, KM20L2; conditions: compounds in DMSO, 48 h; for Gl50 Growth Inhibition, KM20L2: KM20L2 colon cell line; for IC50: Homo sapiens, KM-20L2, KM20L2 colon cell line, read-out: Gl50 Growth Inhibition, KM20L2
Procedure: as §1

DU-145 (prostate) = test: Sulforhodamine B human cancer cell growth inhibition, DU-145; conditions: DU-145 prostate cell line, compounds in DMSO, 48 h; for IC50: Homo sapiens, read-out: Gl50 Growth Inhibition, DU-145
Procedure: as §1

Human Cancer Cell Lines = test: Human cancer cell line panel, overall comparison of growth inhibition; conditions: general statement on Table 1; comparator not stated
Procedure: as §1, with “reader. A growth inhibition of 50% (GI50 or the drug concentration causing a 50% reduction in the net protein increase) was calculated from optical density data with Immunosoft® software.” for “reader.”

Compound	Gl50 Growth Inhibition, XPC-3 (BXPC-3 (pancreas))	Gl50 Growth Inhibition, MCF-7 (MCF-7 (breast))	Gl50 Growth Inhibition, SF-268 (SF-268 (CNS))	Gl50 Growth Inhibition, NCI-H460 (NCI-H460 (lung))	Gl50 Growth Inhibition, KM20L2 (KM20L2 (colon))	Gl50 Growth Inhibition, DU-145 (DU-145 (prostate))	fold increase in cancer cell growth inhibition (Human Cancer Cell Lines)	IC50 (BXPC-3 (pancreas))	IC50 (MCF-7 (breast))	IC50 (SF-268 (CNS))	IC50 (NCI-H460 (lung))	IC50 (KM20L2 (colon))	IC50 (DU-145 (prostate))
C=C(C)[C@@H]1CC[C@]2(COC(C)=O)CC[C@]3(C)[C@H](CC[C@@H]4[C@@]5(C)CCC(N)C(C)(C)[C@@H]5CC[C@]43C)[C@@H]12 (single isomer, unassigned) [Compound 9b, 3-α/β-Amino-28-O-acetyl-betulin]	1.1 µg/mL	0.20 µg/mL	0.21 µg/mL	0.21 µg/mL	0.35 µg/mL	0.13 µg/mL	~10 fold						
3β-Amino-N-(Dap-Dil-Val-Dov)-betulin [Compound 11b]	2.0 µg/mL	0.70 µg/mL	0.40 µg/mL	2.1 µg/mL	0.85 µg/mL	0.40 µg/mL	~10 fold						
CC[C@H](C)C([C@@H](CC(=O)N1CCCC1[C@H](OC)[C@@H](C)C(=O)NCCN1C(=O)[C@]23CCC(C)(C)C1C2[C@H]1CCC2[C@@]4(C)CC[C@H](O)C(C)(C)C4CC[C@@]2(C)[C@]1(C)CC3)OC)N(C)C(=O)[C@@H](NC(=O)[C@H](C(C)C)N(C)C)C(C)C (stereo partly drawn) [Compound 18b, 28-Amido-allobetulin-28-N-1′-ethyldiamine-N-2′-Dap-Dil-Val-Dov]							~10 fold	0.31 µg/mL (≈ 0.287 µM)	0.21 µg/mL (≈ 0.195 µM)	0.09 µg/mL (≈ 0.0834 µM)	0.6 µg/mL (≈ 0.556 µM)	0.22 µg/mL (≈ 0.204 µM)	0.06 µg/mL (≈ 0.0556 µM)
C=C(CNC(=O)[C@H](C)[C@@H](OC)C1CCCN1C(=O)C[C@@H](OC)[C@H]([C@@H](C)CC)N(C)C(=O)[C@@H](NC(=O)C(C(C)C)N(C)C)C(C)C)[C@@H]1CC[C@]2(CO)CC[C@]3(C)C(CCC4[C@@]5(C)CC[C@H](O)C(C)(C)[C@@H]5CC[C@]43C)[C@@H]12 (stereo partly drawn) [Compound 16b, 30-N-(Dap-Dil-Val-Dov)-betulin]							hundred-fold	0.4 µg/mL (≈ 0.385 µM)	0.08 µg/mL (≈ 0.077 µM)	0.04 µg/mL (≈ 0.0385 µM)	0.5 µg/mL (≈ 0.481 µM)	0.09 µg/mL (≈ 0.0867 µM)	0.04 µg/mL (≈ 0.0385 µM)
C=C(C)[C@@H]1CC[C@]2(CNC(=O)[C@H](C)[C@@H](OC)C3CCCN3C(=O)C[C@@H](OC)[C@H]([C@@H](C)CC)N(C)C(=O)C(NC(=O)[C@H](C(C)C)N(C)C)C(C)C)CC[C@]3(C)C(CCC4[C@@]5(C)CC[C@H](O)C(C)(C)C5CC[C@]43C)C12 (stereo partly drawn) [Compound 7b, Betulin-28-amino-N-(Dap-Dil-Val-Dov)]							~10 fold	0.6 µg/mL (≈ 0.587 µM)	0.4 µg/mL (≈ 0.391 µM)	0.3 µg/mL (≈ 0.293 µM)	> 1 µg/mL	0.31 µg/mL (≈ 0.303 µM)	0.4 µg/mL (≈ 0.391 µM)
